Results as given in ChEMBL document CHEMBL1287764, “3-O-phosphate ester conjugates of 17-β-O-{1-[2-carboxy-(2-hydroxy-4-methoxy-3-carboxamido)anilido]ethyl}1,3,5(10)-estratriene as novel bone-targeting agents” (Bioorg Med Chem Lett, 2010).

System: Hydroxyapatite
Assay: Binding affinity to hydroxyapatite at 10 nM by UV-spectroscopy relative to tetracycline

COc1ccc(NC(=O)CCO[C@H]2CC[C@H]3[C@@H]4CCc5cc(OP(=O)(OCc6ccccc6)OCc6ccccc6)ccc5[C@H]4CC[C@]23C)c(O)c1C(N)=O
RBA: 190%

C[C@]12CC[C@@H]3c4ccc(O)cc4CC[C@H]3[C@@H]1CC[C@@H]2O
RBA: 0%

COc1ccc(NC(=O)CCO[C@H]2CC[C@H]3[C@@H]4CCc5cc(OP(=O)(OCC(C)C)OCC(C)C)ccc5[C@H]4CC[C@]23C)c(O)c1C(N)=O
RBA: 180%

CN(C)[C@@H]1C(O)=C(C(N)=O)C(=O)[C@@]2(O)C(O)=C3C(=O)c4c(O)cccc4[C@@](C)(O)[C@H]3C[C@@H]12
RBA: 100%

CCCCOP(=O)(OCCCC)Oc1ccc2c(c1)CC[C@@H]1[C@@H]2CC[C@]2(C)[C@@H](OCCC(=O)Nc3ccc(OC)c(C(N)=O)c3O)CC[C@@H]12
RBA: 100%

CCCCCCCCCCCCOP(=O)(OCCCCCCCCCCCC)Oc1ccc2c(c1)CC[C@@H]1[C@@H]2CC[C@]2(C)[C@@H](OCCC(=O)Nc3ccc(OC)c(C(N)=O)c3O)CC[C@@H]12
RBA: 160%

CCCCC(CC)COP(=O)(OCC(CC)CCCC)Oc1ccc2c(c1)CC[C@@H]1[C@@H]2CC[C@]2(C)[C@@H](OCCC(=O)Nc3ccc(OC)c(C(N)=O)c3O)CC[C@@H]12 (stereo partly drawn)
RBA: 180%

COc1ccc(NC(=O)CCO[C@H]2CC[C@H]3[C@@H]4CCc5cc(OP(=O)(OC(C)C)OC(C)C)ccc5[C@H]4CC[C@]23C)c(O)c1C(N)=O
RBA: 200%
